Series [1] concerns SARS-CoV-2. Briefly: Western blot of viral proteins and DCLK1 in SARS-CoV-2-infected Calu3 lung cells. Type of series: cell-based. (Immunoblotting shows a protein as a band on a membrane.)
Series [2] deals with SARS-CoV-2. The series can be described thus: TCID50 titer of infectious SARS-CoV-2 particles in culture supernatants of infected Calu3 cells. The note with it: treated vs untreated. Type of series: cell-based.
The subject of series [3] is SARS-CoV-2. It counts as cell-based.
The test system of series [4] is SARS-CoV-2-infected Calu3 cells. Type of series: cell-based. Particulars: DCLK1-IN-1 5 μM, tasquinimod 10 μM or both.
Series [5] relates to SARS-CoV-2. Type of series: cell-based. This is another data set of the same source.
Series [6] concerns SARS-CoV-2-infected Huh7-RFP-DCLK1 cells with normal human PBMCs. The series can be described thus: Multiplex cytokine assay of spent supernatants from infected Huh7-RFP-DCLK1 / PBMC mixed cocultures. Type of series: cell-based. The note with it: 5 μM, 48 h. As to the method:
Tissue culture supernatants and sera were analyzed using a custom-made human Magnetic Luminex Assay Kit (LXSAHM-15; R&D Systems) for the following analytes: TNF-α, IFNα, IFNβ, IFNγ, IL-1β, IL-2, IL-4, IL-6, IL-8, IL-10, IL-17, CCL2, M-CSF, GM-CSF, and VEGF-A. Samples were processed in replicates and quantified using the BioPlex 200 System (Bio-Rad). The concentration of each analyte was expressed as pg/mg of total protein. Analyte levels in normal serum or control supernatants were set at 100% when compared to test samples.
To assess the effect of DCLK1 kinase on cytokine production during SARS-CoV-2 infection, we mixed infected Huh7-RFP-DCLK1 cells with normal human PBMCs in the presence of 5 μM DCLK1-IN-1 for 48 h. Spent supernatants were assayed for cytokines/chemokines/growth factors using a multiplex system. As with infected Calu3 cells, DCLK1-IN-1 blocked Spike (FIG. 8A, lane 2, Set 2). […] However, PBMCs were responsive to SARS-CoV-2-infected cells as indicated by increased secretion of TNF-α, IL-1β, IL-6, and IL-10 in spent media compared to uninfected cells (FIG. 8B). DCLK1-IN-1 treatment led to downregulation of cytokines involved in inflammation and viral response (TNF-α, IFNα, IFNγ, and IL-10; FIG. 8C). […] Since CCL2 participates in normal wound healing, an increase in this chemokine may contribute to tissue healing after viral clearance. […]

For series [7], the system named is SARS-CoV-2 infected Calu-3 lung cells. Briefly: Label-free quantitative proteomic analysis of SARS-CoV-2-infected Calu-3 lung cells. Type of series: cell-based.
Series [8] has as its system SARS-CoV-2 nucleocapsid and membrane proteins. Briefly: Phosphoproteomic analysis of viral proteins in infected Calu3 cells. It counts as cell-based.
The next series deals with Omicron B.1.1.529 virus. Type of series: cell-based, SARS-CoV-2. The note with it: 5 μM and 10 μM, in comparison to vehicle-treated control.
Series [9] concerns SARS-CoV-2. It counts as in vivo, K18-hACE2 mice. Particulars: 10 mg/kg i.p. daily for 4 days.
A further series addresses T1, kinase domain of DCLK1 (Homo sapiens, UniProt O15075).
T1 sequence (O15075 390-647 limits assumed): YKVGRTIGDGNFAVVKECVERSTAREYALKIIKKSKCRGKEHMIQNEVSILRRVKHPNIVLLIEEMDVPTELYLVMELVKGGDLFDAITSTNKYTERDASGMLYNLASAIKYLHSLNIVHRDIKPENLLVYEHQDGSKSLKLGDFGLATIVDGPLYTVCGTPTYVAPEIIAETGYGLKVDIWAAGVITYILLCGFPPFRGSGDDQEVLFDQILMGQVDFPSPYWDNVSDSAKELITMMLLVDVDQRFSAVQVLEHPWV
Particulars: cited from earlier work.

For series [10] the following is noted: mice, cited from earlier work.
The target of the next series is T2, GM-CSF (Homo sapiens, UniProt P04141).
T2 construct: host or cells: COVID-19 patients (endogenous GM-CSF)
T2 sequence (P04141 18-144): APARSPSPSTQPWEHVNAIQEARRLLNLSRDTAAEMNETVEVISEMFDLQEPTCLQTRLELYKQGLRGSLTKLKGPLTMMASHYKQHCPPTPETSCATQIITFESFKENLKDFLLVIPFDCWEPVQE
Particulars: clinical trial; cited from earlier work.

Consider four molecules from patent US20250127890A1, “COMPOSITIONS AND METHODS FOR TREATING CORONAVIRUS INFECTIOUS DISEASE-19 (COVID-19)” (THE BOARD OF REGENTS OF THE UNIVERSITY OF OKLAHOMA, priority 2021, published 2025).

Like-named read-outs stand apart in the source and are kept apart here.

With `COc1cc(N2CCN(C)CC2)ccc1Nc1ncc2c(n1)N(C)c1ccccc1C(=O)N2CC(F)(F)F` [DCLK1-IN-1], the “loss of intracellular viral proteins (nucleocapsid and Spike)” value in the series with SARS-CoV-2 [1] (5 μM, infected Calu3, Western blot) is on record as about 65%. The “loss of intracellular viral proteins (nucleocapsid and Spike)” value with SARS-CoV-2 [1] (10 μM, infected Calu3, Western blot) is on record as about 95%. Moreover, the DCLK1 protein levels result with SARS-CoV-2 [1] (infected Calu3, Western blot) is reported as “not significantly affected”. For the same molecule, in the series with SARS-CoV-2 [1] (infected Calu3, Western blot, compared to untreated control), the “reduction in intracellular viral proteins (nucleocapsid and Spike)” value was “strong dose-response reduction”. Moreover, the “decrease in infectivity (TCID50)” value in the series on SARS-CoV-2 [2] (5 μM) was 4 fold. The “decrease in infectivity (TCID50)” value with SARS-CoV-2 [2] (10 μM) worked out at 10 fold. Also, the Spike by immunofluorescence entry in the series on SARS-CoV-2 [3] is “downregulation of Spike”. The “active forms of caspase 1 and IL-1β” value in series [4] is given as “downregulated”. In addition, in the series on SARS-CoV-2 [5], the “effect on Spike” value is “blocked Spike”. Also, in [6], the “CCL2 (MCP-1)” value is reported as “increased expression”; the “cytokines involved in inflammation and viral response (TNF-α, IFNα, IFNγ, and IL-10)” value is on record as “downregulation”. In addition, in series [7] (infected Calu3, proteomics), the nucleocapsid protein abundance result is recorded as “not decreased”; the “viral structural proteins (membrane and Spike) and accessory proteins (ORF7a, ORF8, and ORF9b)” value was “significantly downregulated”. In addition, in series [7] (infected Calu3, proteomics, GSPT2, SAMD4B, WDR75 validated by Western blot), the “8 host proteins upregulated by SARS-CoV-2 (GSPT2, LGALS1, ENO2, H3C15, LXN, SAMD4B, SPTA1 and WDR75)” value is “normalized”. For the same molecule, the “21 cellular proteins downregulated by SARS-CoV-2 infection” value in series [7] (several of these proteins, data not shown) is “restored to normal”. Also, the “phosphorylation of five serine residues (S2, S176, S180, S201, and S202) of nucleocapsid protein” value in series [8] (compared with untreated and vehicle-treated infected cells) is on record as “significant decrease”. Besides, the “phosphorylation of viral membrane protein (M) at S212, S213 and S214” value in series [8] (infected cells, phosphoproteomics) was “significantly reduced”. Further, the “inhibition of Omicron virus production” value in the series with Omicron B.1.1.529 virus is on record as 80%-90%. In the series on SARS-CoV-2 [9], the “Dclk1 and S100A9 in lung (confocal microscopy)” value is “low expression”; the “expression of Spike and nucleocapsid proteins in lung (Western blot)” value was “reduced or absent”; the “staining for Spike in lung (confocal microscopy)” value is recorded as “rare or weak”. The “lung histopathological features (H&E)” value with SARS-CoV-2 [9] (lungs collected on day 5) is on record as “significantly improved”. For the same molecule, the Kd (as a rule, the concentration at which binding is half-saturated) on kinase domain of DCLK1 (binds the kinase domain of DCLK1) was 109 nM. In addition, in series [10] (100 mg/kg), the “adverse effects / body weight at MTD” value is given as “no adverse effects or loss of body weight”. Moreover, in [10], the half-life (usually the time in which the quantity being followed falls by half) is listed as 2.09 h and the “maximum tolerated dose (MTD)” value is on record as 100 mg/kg.
For `COc1cc(N2CCN(C)CC2)ccc1Nc1ncc2c(n1)N(C)c1ccc(C)cc1C(=O)N2CC(F)(F)F` [DCLK1-NEG], the “effect on Spike” value with SARS-CoV-2 [1] was “did not reduce Spike”. The binding affinity result at kinase domain of DCLK1 (structural analog used as negative control) is given as “low binding affinity”.
On to `COc1cccc2c1c(O)c(C(=O)N(C)c1ccc(C(F)(F)F)cc1)c(=O)n2C` [tasquinimod], for which the “active forms of caspase 1 and IL-1β” value in series [4] is “downregulated”.

B1: lenzilumab: a GM-CSF inhibitor (antibody, chains of the INN, looked up, V domains shown)
VH: QVQLVQSGAEVKKPGASVKVSCKASGYSFTNYYIHWVRQAPGQRLEWMGWINAGNGNTKYSQKFQGRVTITRDTSASTAYMELSSLRSEDTAVYYCVRRQRFPYYFDYWGQGTLVTVSS
VL: EIVLTQSPATLSVSPGERATLSCRASQSVGTNVAWYQQKPGQAPRVLIYSTSSRATGITDRFSGSGSGTDFTLTISRLEPEDFAVYYCQQFNKSPLTFGGGTKVEIK
On to B1, for which the “survival of COVID-19 patients” value with GM-CSF is listed as “significantly improved”.
